Data as given in patent US11535643B2, “Macrolides with modified desosamine sugars and uses thereof” (President and Fellows of Harvard College, priority 2015, dated 2022).
In brackets after ≈: the same amount, converted by molar mass.

What was measured:
Assay type in all cases: cell-based
A. baumannii = test: Broth dilution MIC determination (CLSI) against A. baumannii strains; conditions: for MIC A. baumannii ATCC19606: ATCC19606, Strain No. MP-15
Text: (§1) Minimum inhibitory concentrations (MICs) for macrolides described herein have been determined for unique strains of S. aureus, S. pneumoniae, S. pyogenes, E. faecalis, E. coli, A. baumannii, K. pneumoniae, P. aeruginosa, and H. influenzae, including several multidrug-resistant strains, with a special focus on macrolide resistant mechanisms. Azithromycin and solithromycin were included as control compounds. CLSI standard procedures for broth dilution MIC determination were used. Data for exemplary compounds described herein is shown in Tables M1-M7 and in Tables N1-N4.

S. pneumoniae = test: Broth dilution MIC determination (CLSI) against S. pneumoniae strains; conditions: for MIC S. pneumoniae ATCC49619: ATCC49619, Strain No. MP-21
Text: as §1

S. pyogenes = test: Broth dilution MIC determination (CLSI) against S. pyogenes strains; conditions: for MIC S. pyogenes ATCC19615: ATCC19615, Strain No. MP-19; for MIC S. pyogenes mac resistant: Strain No. MP-625 UNT-014
Text: as §1

P. aeruginosa = test: Broth dilution MIC determination (CLSI) against P. aeruginosa strains; conditions: for MIC P. aeruginosa ATCC27853: ATCC27853, Strain No. MP-3; for MIC P. aeruginosa PAO1: PAO1, Strain No. MP-7; for MIC P. aeruginosa PAO1:mex: Strain No. MP-8
Text: as §1

S. aureus = test: Broth dilution MIC determination (CLSI) against S. aureus strains; conditions: for MIC S. aureus ATCC29213: ATCC29213, Strain No. MP-12; for MIC S. aureus ATCCBAA-977: ATCCBAA-977, Strain No. MP-17; for MIC S. aureus (MRSA) GISA USA600: GISA USA600, Strain No. MP-619 UNT-120; for MIC S. aureus (MRSA) ST-228 cErm: Strain No. MP-513; for MIC S. aureus (MRSA) USA100: USA100, Strain No. MP-618 UNT-096; for MIC S. aureus (MRSA) USA300: USA300, Strain No. MP-549; for MIC S. aureus (MRSA) ermA phenotype: Strain No. MP-620 UNT-146
Text: as §1

E. faecalis = test: Broth dilution MIC determination (CLSI) against E. faecalis strains; conditions: for MIC E. faecalis ATCC29212: ATCC29212, Strain No. MP-24; for MIC E. faecalis van resistant: Strain No. UNT-039
Text: as §1

E. coli = test: Broth dilution MIC determination (CLSI) against E. coli strains; conditions: for MIC E. coli ATCC25922: ATCC25922, Strain No. MP-4; for MIC E. coli ATCC25922:tolC: Strain No. MP-9; for MIC E. coli clinical: Strain No. MP541; for MIC E. coli clinical-cErm: Strain No. MP532
Text: as §1

K. pneumoniae = test: Broth dilution MIC determination (CLSI) against K. pneumoniae strains; conditions: for MIC K. pneumoniae ATCC10031: ATCC10031, Strain No. MP-14
Text: as §1, with “used.” for “used. Data for exemplary compounds described herein is shown in Tables M1-M7 and in Tables N1-N4.”

| Compound | MIC A. baumannii ATCC19606 (A. baumannii) | MIC A. baumannii clinical (A. baumannii; Strain No. MP576) | MIC A. baumannii clinical (A. baumannii; Strain No. MP577) | MIC S. pneumoniae ATCC49619 (S. pneumoniae) | MIC S. pneumoniae mefA (S. pneumoniae; Strain No. MP-626 UNT-038) | MIC S. pneumoniae mefA (S. pneumoniae; Strain No. MP-627 UNT-039) | MIC S. pyogenes ATCC19615 (S. pyogenes) | MIC S. pyogenes mac resistant (S. pyogenes) | MIC P. aeruginosa ATCC27853 (P. aeruginosa) | MIC P. aeruginosa PAO1 (P. aeruginosa) | MIC P. aeruginosa PAO1:mex (P. aeruginosa) | MIC S. aureus ATCC29213 (S. aureus) | MIC S. aureus ATCCBAA-977 (S. aureus) | MIC S. aureus (MRSA) GISA USA600 (S. aureus) | MIC S. aureus (MRSA) ST-228 cErm (S. aureus) | MIC S. aureus (MRSA) USA100 (S. aureus) | MIC S. aureus (MRSA) USA300 (S. aureus) | MIC S. aureus (MRSA) ermA phenotype (S. aureus) | MIC E. faecalis ATCC29212 (E. faecalis) | MIC E. faecalis van resistant (E. faecalis) | other results |
| --- | --- | --- | --- | --- | --- | --- | --- | --- | --- | --- | --- | --- | --- | --- | --- | --- | --- | --- | --- | --- | --- |
| CCC1OC(=O)C(C)C(=O)C(C)C(OC2OC(C)CC(n3cccc3)C2O)C(C)(OC)CC(C)CNC(C)C2N(CCCCn3cc(-c4cccc(N)c4)nn3)C(=O)OC12C (stereo not drawn) [FSM-120362] | >64 µg/mL | >32 µg/mL | >32 µg/mL | 8 µg/mL (≈ 9.41 µM) | 4 µg/mL (≈ 4.71 µM) | 8 µg/mL (≈ 9.41 µM) | 2 µg/mL (≈ 2.35 µM) | 16 µg/mL (≈ 18.8 µM) | >32 µg/mL | >32 µg/mL | >64 µg/mL | >64 µg/mL | >64 µg/mL | >32 µg/mL | >64 µg/mL | >64 µg/mL | >64 µg/mL | >32 µg/mL | 64 µg/mL (≈ 75.3 µM) | >32 µg/mL | MIC E. coli ATCC25922 (E. coli): >32 µg/mL; MIC E. coli ATCC25922:tolC (E. coli): >64 µg/mL; MIC E. coli clinical (E. coli): >32 µg/mL; MIC E. coli clinical-cErm (E. coli): >32 µg/mL; MIC K. pneumoniae ATCC10031 (K. pneumoniae): >64 µg/mL; MIC K. pneumoniae clinical (K. pneumoniae; Strain No. MP546): >32 µg/mL; MIC K. pneumoniae clinical (K. pneumoniae; Strain No. MP548): >32 µg/mL |
| C=CCOCC1CC(N(C)C)C(O)C(OC2C(C)C(=O)C(C)C(=O)OC(CC)C3(C)OC(=O)N(CCCCn4cc(-c5cccc(N)c5)nn4)C3C(C)NCC(C)CC2(C)OC)O1 (stereo not drawn) [FSM-120383] | 32 µg/mL (≈ 36.2 µM) | >64 µg/mL | 64 µg/mL (≈ 72.4 µM) | 0.5 µg/mL (≈ 0.566 µM) | 0.5 µg/mL (≈ 0.566 µM) | 0.5 µg/mL (≈ 0.566 µM) | 0.25 µg/mL (≈ 0.283 µM) | 1 µg/mL (≈ 1.13 µM) | 32 µg/mL (≈ 36.2 µM) | 64 µg/mL (≈ 72.4 µM) | 8 µg/mL (≈ 9.05 µM) | >64 µg/mL | 64 µg/mL (≈ 72.4 µM) | >64 µg/mL | >64 µg/mL | >64 µg/mL | >64 µg/mL | >64 µg/mL | 8 µg/mL (≈ 9.05 µM) | >64 µg/mL | MIC E. coli ATCC25922 (E. coli): 32 µg/mL (≈ 36.2 µM); MIC E. coli ATCC25922:tolC (E. coli): 4 µg/mL (≈ 4.52 µM); MIC E. coli clinical (E. coli): 32 µg/mL (≈ 36.2 µM); MIC E. coli clinical-cErm (E. coli): >64 µg/mL; MIC K. pneumoniae ATCC10031 (K. pneumoniae): 8 µg/mL (≈ 9.05 µM); MIC K. pneumoniae clinical (K. pneumoniae; Strain No. MP546): >64 µg/mL; MIC K. pneumoniae clinical (K. pneumoniae; Strain No. MP548): >64 µg/mL |
| CCC1OC(=O)C(C)C(=O)C(C)C(OC2OC(CNCc3ccc(F)cc3)CC(N(C)C)C2O)C(C)(OC)CC(C)CNC(C)C2N(CCCCn3cc(-c4cccc(N)c4)nn3)C(=O)OC12C (stereo not drawn) [FSM-120391] | 64 µg/mL (≈ 67.3 µM) | >64 µg/mL | 16 µg/mL (≈ 16.8 µM) | <0.03 µg/mL | 0.06 µg/mL (≈ 0.0631 µM) | 0.125 µg/mL (≈ 0.131 µM) | <0.03 µg/mL | 0.5 µg/mL (≈ 0.526 µM) | 64 µg/mL (≈ 67.3 µM) | >64 µg/mL | 16 µg/mL (≈ 16.8 µM) | 4 µg/mL (≈ 4.21 µM) | 4 µg/mL (≈ 4.21 µM) | >64 µg/mL | >64 µg/mL | >64 µg/mL | 4 µg/mL (≈ 4.21 µM) | >64 µg/mL | 1 µg/mL (≈ 1.05 µM) | >64 µg/mL | MIC E. coli ATCC25922 (E. coli): 4 µg/mL (≈ 4.21 µM); MIC E. coli ATCC25922:tolC (E. coli): 0.25 µg/mL (≈ 0.263 µM); MIC E. coli clinical (E. coli): 8 µg/mL (≈ 8.41 µM); MIC E. coli clinical-cErm (E. coli): >64 µg/mL; MIC K. pneumoniae ATCC10031 (K. pneumoniae): 4 µg/mL (≈ 4.21 µM); MIC K. pneumoniae clinical (K. pneumoniae; Strain No. MP546): 64 µg/mL (≈ 67.3 µM); MIC K. pneumoniae clinical (K. pneumoniae; Strain No. MP548): 32 µg/mL (≈ 33.6 µM) |
